This note sets out measurements from ChEMBL document CHEMBL1201862, “PubChem BioAssay data set” (2004).

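Five concentrations, 48 hours, 96-well plates. GI50 marks 50% less growth.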 Calls of active or inactive are those of the source. Cut-off read from the data, not from the text of the source: active = GI50 up to about 1.1 µM and inactive = higher.

Test systems include M14; NCI-H23; DU-145; HCT-116; OVCAR-5; MDA-MB-231; CAKI-1; HOP-62; MDA-N; 786-0; MOLT-4; SK-MEL-5; SK-MEL-2; A549; SNB-19; SNB-75; U-251; SF-539.
Common to all, as to assay: NCI tumour cell line growth inhibition, 48 h

For the compound `COc1ccc(-c2nc(O)c3ccccc3n2)c(OC)c1`, the GI50 with M14, in the assay with NCI-H23, in the assay on DU-145, in the assay on HCT-116, in the assay on OVCAR-5 and in the assay on MDA-MB-231 was > 100 µM (inactive) throughout. The GI50 in the assay on CAKI-1, in the assay with HOP-62, in the assay with MDA-N, in the assay with 786-0, with MOLT-4 and in the assay on SK-MEL-5 was > 100 µM (inactive) throughout. Besides, the GI50 in the assay with SK-MEL-2, with A549, in the assay with SNB-19, in the assay on SNB-75 and in the assay on U-251 was > 100 µM (inactive) in each case.
For `O=C1CC(c2ccc(Cl)cc2)C2(C(=O)NC(=O)NC2=O)C(c2ccc(Cl)cc2)C1` (configuration not stated), the GI50 in the assay with M14 is 27.7 µM (inactive); in the assay with NCI-H23 it was 34 µM (inactive); in the assay with DU-145, 21.7 µM (inactive); in the assay on HCT-116 it was 31.6 µM (inactive); with OVCAR-5, 31.3 µM (inactive); with MDA-MB-231, 13.4 µM (inactive). Moreover, the GI50 is 35.2 µM (inactive) in the assay on CAKI-1; 22.9 µM (inactive) with HOP-62; 19.8 µM (inactive) in the assay with MDA-N; 25.1 µM (inactive) in the assay on 786-0; 0.0075 µM (active) in the assay with MOLT-4; 14.5 µM (inactive) in the assay with SK-MEL-5. Further, the GI50 in the assay on SK-MEL-2 was 15.6 µM (inactive); in the assay with SF-539, 28.2 µM (inactive); in the assay with SNB-19, 32.3 µM (inactive); in the assay on SNB-75 it was 49.5 µM (inactive); in the assay on U-251 it was 27.5 µM (inactive).
For `O=[N+]([O-])C(/C(Cl)=C(/Cl)N1CCCCC1)=C1\NCCO1`, the GI50 in the assay with M14, in the assay on NCI-H23, in the assay on DU-145, in the assay with HCT-116, in the assay with OVCAR-5 and in the assay on MDA-MB-231 was > 100 µM (inactive) in each case. The GI50 with CAKI-1, with HOP-62, in the assay with MDA-N, in the assay with 786-0, with MOLT-4 and with SK-MEL-2 was > 100 µM (inactive) in each case. In addition, the GI50 with SF-539, in the assay on A549, in the assay with SNB-19, in the assay on SNB-75 and in the assay with U-251 was > 100 µM (inactive) in each case.
Regarding `C#CCN(C(=O)C(F)(F)F)C(/C=C\C(=O)OC)(C(=O)OCC)C(=O)OCC`, the GI50 in the assay on M14, with NCI-H23, in the assay on DU-145, in the assay on OVCAR-5, with MDA-MB-231 and with HOP-62 was > 100 µM (inactive) in each case. Moreover, the GI50 with MDA-N, in the assay on 786-0, with MOLT-4, in the assay with SK-MEL-5, with SK-MEL-2 and with SF-539 was > 100 µM (inactive) throughout. For the same compound, the GI50 in the assay on A549, in the assay with SNB-19, in the assay with SNB-75 and in the assay with U-251 was > 100 µM (inactive) throughout.
For the compound `C=C1CC2[C@H](C)C(=O)CCC2(C)C2=C1C1CCC(C(C)CCC(=C)C(C)C(=O)O)C1(C)CC2=O` (some centres not stated), the GI50 is > 100 µM (inactive) in the assay with M14; 41.9 µM (inactive) in the assay with NCI-H23; 53.1 µM (inactive) in the assay with DU-145; 32.5 µM (inactive) in the assay on HCT-116; > 100 µM (inactive) in the assay on OVCAR-5; > 100 µM (inactive) in the assay with MDA-MB-231. Moreover, the GI50 is > 100 µM (inactive) in the assay with CAKI-1; 45.4 µM (inactive) with HOP-62; 95.3 µM (inactive) in the assay with MDA-N; 20.4 µM (inactive) in the assay on 786-0; 16.8 µM (inactive) in the assay with MOLT-4; 31.3 µM (inactive) in the assay on SK-MEL-5. For the same compound, the GI50 was > 100 µM (inactive) in the assay with SK-MEL-2; 97.3 µM (inactive) in the assay on SF-539; 66.7 µM (inactive) with A549; 69.5 µM (inactive) with SNB-19; 95.5 µM (inactive) in the assay with SNB-75; 55.1 µM (inactive) in the assay on U-251.
As for `CSc1nc(C)c(CCCl)c(Cl)n1`, the GI50 in the assay on M14 is 32.4 µM (inactive); in the assay with NCI-H23, > 100 µM (inactive); in the assay with DU-145, > 100 µM (inactive); with HCT-116 it was 36.6 µM (inactive); in the assay with MDA-MB-231 it was > 100 µM (inactive); in the assay on CAKI-1, > 100 µM (inactive). Moreover, the GI50 in the assay on HOP-62 is > 100 µM (inactive); with MDA-N, 49.8 µM (inactive); in the assay on 786-0, > 100 µM (inactive); in the assay on MOLT-4 it was 27.4 µM (inactive); with SK-MEL-5, 42.1 µM (inactive); in the assay with SF-539, > 100 µM (inactive). The GI50 with A549, in the assay on SNB-19, with SNB-75 and in the assay on U-251 was > 100 µM (inactive) each time.
Turning to `NC1=CN(Cc2ccccc2)C2=N/C(=C\c3ccccc3O)C(=O)N12`, the GI50 in the assay with M14, with NCI-H23, in the assay on DU-145, in the assay on HCT-116, in the assay on OVCAR-5 and in the assay with MDA-MB-231 was > 100 µM (inactive) in each case. For the same compound, the GI50 is > 100 µM (inactive) with CAKI-1; > 100 µM (inactive) with HOP-62; > 100 µM (inactive) in the assay on MDA-N; > 100 µM (inactive) in the assay with 786-0; 96.4 µM (inactive) with MOLT-4; 90.8 µM (inactive) in the assay on SK-MEL-5. In addition, the GI50 in the assay on SK-MEL-2 was > 100 µM (inactive); with SF-539, > 100 µM (inactive); in the assay with A549 it was > 100 µM (inactive); in the assay with SNB-19, > 100 µM (inactive); with SNB-75 it was > 100 µM (inactive); in the assay on U-251, 71.6 µM (inactive).
Consider `C/C=C1\CC(C(=O)OCC)CCCCCCCCCCC1=O` (configuration not stated), for which the GI50 is > 100 µM (inactive) in the assay on M14; 37.6 µM (inactive) in the assay on NCI-H23; 54.3 µM (inactive) with DU-145; 33.4 µM (inactive) with HCT-116; > 100 µM (inactive) in the assay with OVCAR-5; 58.6 µM (inactive) in the assay on MDA-MB-231. Moreover, the GI50 in the assay on CAKI-1 was > 100 µM (inactive); with HOP-62 it was > 100 µM (inactive); in the assay with MDA-N, 29.4 µM (inactive); with 786-0, 70.1 µM (inactive); in the assay with MOLT-4, 29 µM (inactive); in the assay on SK-MEL-5, 29.2 µM (inactive). In addition, the GI50 in the assay with SK-MEL-2 is 36.1 µM (inactive); with SF-539, > 100 µM (inactive); in the assay with A549, 51.3 µM (inactive); in the assay with SNB-19 it was 69.2 µM (inactive); in the assay on SNB-75 it was 27.7 µM (inactive); in the assay with U-251 it was 55.2 µM (inactive).
